Assay results as given in patent publication US5776739A, “Process for producing disaccharides and novel disaccharides” (Kyowa Hakko Kogyo Co., Ltd., priority 1919, dated 1998).

What was measured:
[1] = tested on: alkaline phosphatase; experiment: Residual alkaline phosphatase activity after storage as solution at room temperature (Test Example 1); format: biochemical, calf; conditions: for effective as a stabilizer for alkaline phosphatase: overall conclusion from Test Examples 1-4; for Residual activity: sugar 50 mM, solution, room temperature (25° C.), 24 hours
Protocol: A sample solution (unsupplemented) was prepared by diluting alkaline phosphatase (derived from calf small intestine, Boehringer Mannheim Biochemica) with distilled water. Other sample solutions were prepared by adding, to the above solution, trehalose, maltose, glucosyl (α, 1-1)D-fucose or glucosyl (α, 1-4)L-fucose to the concentration of 50 mM. The sample solutions were allowed to stand at room temperature (25° C.) for 24 hours, and the activity of alkaline phosphatase in each of the sample solutions was determined.
The activity of alkaline phosphatase was determined as follows.
(§1) Each of the sample solutions (10 μl) was incubated at 37° C. in 2.0 ml of the reaction mixture consisting of 1M diethanol-amine buffer (pH 10.2), 0.2 mM magnesium chloride and 5 mM p-nitrophenyl phosphoric acid. Then, the enzyme activity was determined by the amount of p-nitrophenol produced therein, which was culculated on the basis of change in absorbance at 405 nm. The activity of each of the sample solutions immediately after the preparation was defined as 100%, and the residual activity in the stored sample solution was calculated.

[2] = tested on: alkaline phosphatase; experiment: Residual alkaline phosphatase activity after storage as dried powder (Test Example 4); format: biochemical, calf; conditions: sugar 50 mM; dry powder stored at 50° C. for 24 hours
Protocol: as §1
(§2) A sample solution (unsupplemented) was prepared by diluting alkaline phosphatase with distilled water. Other sample solutions were prepared by adding, to the above solution, trehalose, maltose, glucosyl (α, 1-1)D-fucose or glucosyl (α, 1-4)L-fucose to the concentration of 50 mM. Each of the sample solutions was evaporated at room temperature to dryness using a vacuum pump to obtain dry powder, and the dry powder was stored at 50° C. for 24 hours. The activity of alkaline phosphatase in each of the sample solutions was determined in a manner similar to that employed in Test Example 1. The activity of each of the sample solutions immediately after preparation was defined as 100%, and the residual activity in the stored sample solution was calculated.

[3] = tested on: alkaline phosphatase; experiment: Residual alkaline phosphatase activity after repeated freezing and thawing (Test Example 3); format: biochemical, calf; conditions: sugar 50 mM; frozen (dry ice/ethanol) and thawed 10 times
Protocol: as §1
as §2, with “frozen by dry ice/ethanol and thawed” for “evaporated”, “repeatedly 10 times in total.” for “to dryness using a vacuum pump to obtain dry powder, and the dry powder was stored at 50° C. for 24 hours.”, “after the” for “after”, “frozen and thawed” for “stored”

[4] = tested on: alkaline phosphatase; experiment: Residual alkaline phosphatase activity after storage in frozen form (Test Example 2); format: biochemical, calf; conditions: sugar 50 mM; stored frozen at -20° C. for 6 days
Protocol: as §1
as §2, with “The” for “Each of the”, “were stored in frozen form at -20° C. for 6 days. After thawing” for “was evaporated”, “temperature,” for “temperature to dryness using a vacuum pump to obtain dry powder, and”, “the” for “the dry powder was stored at 50° C. for 24 hours. The”

[5] = C. Colaco et al., Bio/Technology, 10, 1007-1011 (1992); cited from earlier work

Structure (SMILES)	effective as a stabilizer for alkaline phosphatase [1]	Residual activity [1]	Residual activity [2]	Residual activity [3]	Residual activity [4]	enhance the stability of biopolymers such as enzyme proteins [5]
C[C@H]1O[C@H](O[C@H]2O[C@H](CO)[C@@H](O)[C@H](O)[C@H]2O)[C@H](O)[C@@H](O)[C@H]1O [Glucosyl (α, 1-1) D-fucose, glucosyl (α, 1-1)D-fucose]	effective as a stabilizer for alkaline phosphatase	21.8%	62.5%	65.0%	36.3%	
C[C@@H]1OC(O)[C@@H](O)[C@H](O)[C@@H]1O[C@H]1O[C@H](CO)[C@@H](O)[C@H](O)[C@H]1O (stereo partly drawn) [Glucosyl (α, 1-4) L-fucose, glucosyl (α, 1-4)L-fucose]	effective as a stabilizer for alkaline phosphatase	93.7%	83.0%	106.0%	76.0%	
OC[C@H]1O[C@H](O[C@H]2[C@H](O)[C@@H](O)[C@H](O)O[C@@H]2CO)[C@H](O)[C@@H](O)[C@@H]1O [Maltose, glucosyl(α,1-4)D-glucose]	effective as a stabilizer for alkaline phosphatase	3.3%	41.0%	16.3%	20.0%	
OC[C@H]1O[C@H](O[C@H]2O[C@H](CO)[C@@H](O)[C@H](O)[C@H]2O)[C@H](O)[C@@H](O)[C@@H]1O [Trehalose, glucosyl(α,1-1)D-glucose]	effective as a stabilizer for alkaline phosphatase	9.4%	55.0%	21.6%	26.4%	enhance the stability of biopolymers such as enzyme proteins
